Test results taken from US20110207726A1, “Inhibitors of Human Cathepsin L, Cathepsin B, and Cathepsin S” (The Trustees of the University of Pennsylvania, priority 2008, published 2011).
Like-named read-outs stand apart in the source and are kept apart here.

How the values were obtained:
[1] = biological target: T1, human liver cathepsin L (Homo sapiens, UniProt P07711); test: Cathepsin L assay, IC50 determination; assay type: biochemical
T1 construct: 8.7 ng/mL human liver cathepsin L (Calbiochem 219402); purchased Calbiochem 219402; host or cells: human liver
T1 sequence (P07711 114-288 limits assumed): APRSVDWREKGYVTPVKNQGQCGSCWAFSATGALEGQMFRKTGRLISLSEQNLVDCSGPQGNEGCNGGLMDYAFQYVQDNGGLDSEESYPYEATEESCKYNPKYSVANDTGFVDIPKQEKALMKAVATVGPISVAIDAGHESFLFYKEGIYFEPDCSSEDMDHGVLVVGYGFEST
T1 sequence (P07711 292-333 limits assumed): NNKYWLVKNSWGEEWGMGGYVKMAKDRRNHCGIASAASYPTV
Protocol: Assay buffer consisted of 20 mM sodium acetate, 1 mM ethylenediaminetetraacetic acid (EDTA) and 5 mM cysteine, pH 5.5. Cathepsin L was incubated in assay buffer for 30 minutes prior to dispensing into wells to allow for efficient reduction of the active site cysteine required for full enzymatic activity.
Upon activation, cathepsin L (300 pM, 8.7 ng/mL) was incubated with 1 microM Z-Phe-Arg-AMC substrate (Sigma C9521) and test compound in […] of assay buffer for 1 hour at room temperature.
All reactions were performed in 20 mM sodium acetate buffer containing 5 mM cysteine and 1 mM EDTA, pH 5.5. Reaction progress was monitored using the Envision microplate reader. IC50 values were measured in triplicate.

[2] = Stability in DMSO and cathepsin L assay buffer; assay type: physicochemical
Description: Some variability in IC50 values determined for Compound (iii) prompted us to explore the stability of both Compound No. 1 and Compound (iii) in solvents relevant to the bioassay.

[3] = biological target: T2, Human liver cathepsin B (Homo sapiens, UniProt P07858); test: Cathepsin B assay, IC50 determination; assay type: biochemical
T2 construct: Human liver cathepsin B (Calbiochem 219362, 65 ng/mL); purchased Calbiochem 219362; host or cells: human liver
Protocol: (§1) Human spleen cathepsin S (Calbiochem 219344, 40 ng/mL) was assayed using 15 microM Z-Phe-Arg-AMC substrate. Human liver cathepsin B (Calbiochem 219362, 65 ng/mL) was assayed using 15 microM Z-Arg-Arg-AMC substrate (Bachem I-1135). All reactions were performed in 20 mM sodium acetate buffer containing 1 mM EDTA and 5 mM cysteine, pH 5.5.
(§2) Compounds were serially diluted in DMSO and transferred into a 96-well Corning 3686 assay microplate to give a 16-point two-fold serial dilution dose response ranging from 25 microM to 760 pM. Human liver cathepsin L (Calbiochem 219402) was activated by incubating with assay buffer for 30 min. Upon activation, cathepsin L (300 pM, 8.7 ng/mL) was incubated with 1 microM Z-Phe-Arg-AMC substrate (Sigma C9521) and test compound in […] of assay buffer for 1 hour at room temperature. Fluorescence of AMC released by enzyme-catalyzed hydrolysis of Z-Phe-Arg-AMC was read on a PerkinElmer Envision microplate reader (excitation 355 nm, emission 460 nm). Data were scaled using internal controls and fitted to a four-parameter logistic model (IDBS XLfit equation 205) to obtain IC50 values in triplicate.
(§3) Compound No. 1 was assayed for inhibition against papain and cathepsins B, G, K, S, and V. Papain from Carica papaya (Calbiochem 5125, 11 ng/mL), human cathepsin K (Calbiochem 342001, 35 ng/mL), human spleen cathepsin S (Calbiochem 219344, 40 ng/mL), and human cathepsin V (Calbiochem 219467, 39 ng/ml) were assayed using Z-Phe-Arg-AMC substrate at 20 μM, 20 μM, 15 μM, and 1 μM, respectively. Human liver cathepsin B (Calbiochem 219362, 65 ng/mL) was assayed using 15 μM Z-Arg-Arg-AMC substrate (Bachem I-1135). Human neutrophil cathepsin G (Calbiochem 219373, 4.2 μg/mL) was assayed using 15 μM Suc-Ala-Ala-Pro-Phe-AMC substrate (Sigma S9761). All reactions were performed in 20 mM sodium acetate buffer containing 5 mM cysteine and 1 mM EDTA, pH 5.5. Reaction progress was monitored using the Envision microplate reader. IC50 values were measured in triplicate.

[4] = biological target: T3, Human spleen cathepsin S (Homo sapiens, UniProt P25774); test: Cathepsin S assay, IC50 determination; assay type: biochemical
T3 construct: Human spleen cathepsin S (Calbiochem 219344, 40 ng/mL); purchased Calbiochem 219344; host or cells: human spleen
T3 sequence (P25774 115-331): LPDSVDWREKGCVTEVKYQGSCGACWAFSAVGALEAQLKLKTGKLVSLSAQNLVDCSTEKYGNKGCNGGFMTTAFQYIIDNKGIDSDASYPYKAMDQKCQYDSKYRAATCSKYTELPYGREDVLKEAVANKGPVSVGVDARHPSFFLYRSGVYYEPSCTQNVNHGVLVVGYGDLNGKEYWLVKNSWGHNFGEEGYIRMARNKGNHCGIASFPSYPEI
Protocol: as §1, §2, §3

IC50 ([1]; no preincubation of enzyme and inhibitor, read-out: IC50 against cathepsin L (no preincubation)) | stability in DMSO [2] | IC50 ([1]; Table 1, read-out: IC50 Cat L) | IC50 ([3]; Table 1, read-out: IC50 Cat B) | IC50 ([4]; Table 1, read-out: IC50 Cat S) | IC50 ([1]; Tables 2-11, read-out: Cat L) | IC50 ([3]; Tables 2-11, read-out: Cat B) | IC50 ([4]; Tables 2-11, read-out: Cat S) | SMILES
0.133 µM | unstable | – | – | – | – | – | – | CCc1ccccc1NC(=O)CSC(=O)NNC(=O)[C@@H](N)Cc1c[nH]c2ccccc12 [Compound (iii)]
– | – | > 25 µM | > 25 µM | > 25 µM | – | – | – | CCc1ccccc1NC(=O)CSC(=O)NNC(=O)[C@@H](C)CO[Si](C)(C)C(C)(C)C [Compound No. 71]
– | – | > 25 µM | > 25 µM | > 25 µM | – | – | – | CCc1ccccc1NC(=O)CSC(=O)NNC(=O)[C@@H](C)COCc1ccc(OC)cc1 [Compound No. 72]
– | – | > 25 µM | > 25 µM | > 25 µM | – | – | – | CCc1ccccc1NC(=O)CSC(=O)NNC(=O)CCc1c[nH]c2ccccc12 [Compound No. 73]
– | – | > 25 µM | > 25 µM | > 25 µM | – | – | – | CCc1ccccc1NC(=O)CSC(=O)NNC(=O)C[C@H](C)NC(=O)OC(C)(C)C [Compound No. 74]
– | – | > 25 µM | > 25 µM | > 25 µM | – | – | – | C[C@@H](CC(=O)NNC(=O)SCC(=O)N1CCCc2ccccc21)NC(=O)OC(C)(C)C [Compound No. 75]
– | – | 5.52 µM | > 25 µM | 2.41 µM | – | – | – | CCc1ccccc1NC(=O)CSC(=O)NNC(=O)C[C@H](CCSC)NC(=O)OC(C)(C)C [Compound No. 76]
– | – | 6.95 µM | > 25 µM | 3.01 µM | – | – | – | CSCC[C@@H](CC(=O)NNC(=O)SCC(=O)N1CCCc2ccccc21)NC(=O)OC(C)(C)C [Compound No. 77]
– | – | 7.52 µM | 11.5 µM | > 25 µM | – | – | – | CCc1ccccc1NC(=O)CSC(=O)NNC(=O)C[C@@H](NC(=O)OC(C)(C)C)C(C)C [Compound No. 78]
– | – | > 25 µM | 15.8 µM | > 25 µM | – | – | – | CC(C)[C@@H](CC(=O)NNC(=O)SCC(=O)N1CCCc2ccccc21)NC(=O)OC(C)(C)C [Compound No. 79]
– | – | > 25 µM | > 25 µM | > 25 µM | – | – | – | CCc1ccccc1NC(=O)CSC(=O)NNC(=O)C[C@@H]1CCCN1C(=O)OC(C)(C)C [Compound No. 80]
– | – | > 25 µM | > 25 µM | > 25 µM | – | – | – | CC(C)(C)OC(=O)N1CCC[C@H]1CC(=O)NNC(=O)SCC(=O)N1CCCc2ccccc21 [Compound No. 81]
– | – | > 25 µM | > 25 µM | 4.47 µM | – | – | – | CCc1ccccc1NC(=O)CSC(=O)NNC(=O)C[C@H](COCc1ccccc1)NC(=O)OC(C)(C)C [Compound No. 82]
– | – | 2.12 µM | > 25 µM | 5.95 µM | – | – | – | CC(C)(C)OC(=O)N[C@@H](COCc1ccccc1)CC(=O)NNC(=O)SCC(=O)N1CCCc2ccccc21 [Compound No. 83]
– | – | > 25 µM | > 25 µM | 15.2 µM | – | – | – | CCc1ccccc1NC(=O)CSC(=O)NNC(=O)C[C@@H](COCc1ccccc1)NC(=O)OC(C)(C)C [Compound No. 84]
– | – | > 25 µM | > 25 µM | > 25 µM | – | – | – | CC(C)(C)OC(=O)N[C@H](COCc1ccccc1)CC(=O)NNC(=O)SCC(=O)N1CCCc2ccccc21 [Compound No. 85]
– | – | > 25 µM | > 25 µM | > 25 µM | – | – | – | CCc1ccccc1NC(=O)CSC(=O)NNC(=O)C[C@@H](Cc1c[nH]c2ccccc12)NC(=O)OC(C)(C)C [Compound No. 86]
– | – | – | – | – | 0.011 µM | ≥ 25 µM | 0.062 µM | CCc1ccccc1NC(=O)COC(=O)NNC(=O)[C@H](Cc1c[nH]c2ccccc12)NC(=O)OC(C)(C)C [Compound No. 93]

IC50 ([1]; no preincubation of enzyme and inhibitor, read-out: IC50 against cathepsin L (no preincubation)) | stability in DMSO [2] | IC50 ([1]; Table 1, read-out: IC50 Cat L) | IC50 ([3]; Table 1, read-out: IC50 Cat B) | IC50 ([4]; Table 1, read-out: IC50 Cat S) | IC50 ([1]; Tables 2-11, read-out: Cat L) | IC50 ([3]; Tables 2-11, read-out: Cat B) | IC50 ([4]; Tables 2-11, read-out: Cat S) | SMILES
– | – | – | – | – | 0.806 µM | ≥ 25 µM | 4.1 µM | CC(C)(C)OC(=O)N[C@@H](Cc1c[nH]c2ccccc12)C(=O)NNC(=O)OCc1ccccc1 [Compound No. 94]
– | – | – | – | – | ≥ 25 µM | ≥ 25 µM | ≥ 25 µM | CCOC(=O)NNC(=O)[C@H](Cc1c[nH]c2ccccc12)NC(=O)OC(C)(C)C [Compound No. 95]
– | – | – | – | – | ≥ 25 µM | ≥ 25 µM | ≥ 25 µM | CCc1ccccc1NC(=O)CCC(=O)NNC(=O)[C@H](Cc1c[nH]c2ccccc12)NC(=O)OC(C)(C)C [Compound No. 113]
– | – | – | – | – | ≥ 25 µM | ≥ 25 µM | ≥ 25 µM | O=C(CCc1c[nH]c2ccccc12)NNC(=O)CCc1c[nH]c2ccccc12 [Compound No. 114]
– | – | – | – | – | ≥ 25 µM | ≥ 25 µM | ≥ 25 µM | CC(C)(C)OC(=O)N[C@@H](Cc1c[nH]c2ccccc12)C(=O)NNC(=O)CCC(=O)N1CCCc2ccccc21 [Compound No. 115]
– | – | – | – | – | ≥ 25 µM | ≥ 25 µM | ≥ 25 µM | CSCC[C@H](NC(=O)OC(C)(C)C)C(=O)NNC(=O)c1ccccc1 [Compound No. 116]
– | – | – | – | – | ≥ 25 µM | ≥ 25 µM | ≥ 25 µM | CC(C)(C)OC(=O)N[C@@H](Cc1c[nH]c2ccccc12)C(=O)NNC(=O)[C@@H](Cc1c[nH]c2ccccc12)NC(=O)OC(C)(C)C [Compound No. 117]
– | – | – | – | – | ≥ 25 µM | ≥ 25 µM | ≥ 25 µM | CC(C)(C)OC(=O)N[C@@H](Cc1c[nH]c2ccccc12)C(=O)NN [Compound No. 118]
– | – | – | – | – | ≥ 25 µM | ≥ 25 µM | ≥ 25 µM | CC(C)(C)OC(=O)N[C@H](Cc1c[nH]c2ccccc12)C(=O)NN [Compound No. 119]
– | – | – | – | – | ≥ 25 µM | ≥ 25 µM | ≥ 25 µM | CC(C)(C)OC(=O)N[C@@H](Cc1c[nH]c2ccccc12)C(=O)NOCC(=O)N1CCCc2ccccc21 [Compound No. 120]
– | – | – | – | – | ≥ 25 µM | ≥ 25 µM | ≥ 25 µM | C/C=C(/C=O)[C@@H](CC=O)CC(=O)OCCc1ccc(O)cc1 [Compound No. 121]
– | – | – | – | – | ≥ 25 µM | ≥ 25 µM | ≥ 25 µM | Cc1ccc(S(=O)(=O)NNC(=O)[C@H](Cc2ccc(OC(=O)OC(C)(C)C)cc2)NC(=O)OC(C)(C)C)cc1 [Compound No. 122]
– | – | – | – | – | ≥ 25 µM | ≥ 25 µM | ≥ 25 µM | CC(C)(C)OC(=O)N[C@@H](Cc1c[nH]c2ccccc12)C(=O)N/N=C/c1ccccc1 [Compound No. 123]
– | – | – | – | – | ≥ 25 µM | ≥ 25 µM | ≥ 25 µM | CC(C)(C)OC(=O)N[C@@H](Cc1c[nH]c2ccccc12)C(=O)N/N=C/c1ccc(Cl)cc1 [Compound No. 124]
– | – | – | – | – | 2.34 µM | ≥ 25 µM | 13 µM | CC(C)(C)OC(=O)N[C@@H](Cc1c[nH]c2ccccc12)C(=O)NNC(=O)NCC(=O)N1CCCc2ccccc21 [Compound No. 125]
– | – | – | – | – | ≥ 25 µM | ≥ 25 µM | ≥ 25 µM | CSCC[C@H](NC(=O)OC(C)(C)C)C(=O)NNC(=S)SCC(=O)N1CCc2ccccc21 [Compound No. 126]
– | – | – | – | – | ≥ 25 µM | ≥ 25 µM | ≥ 25 µM | CC(C)(C)OC(=O)N[C@@H](Cc1ccc(OC(=O)OC(C)(C)C)cc1)C(=O)NNC(=O)C(=O)N1CCc2ccccc2C1 [Compound No. 127]
